Patent publication US10221171B2, “Oxathiazole thiazolium Hsp 70 inhibitors” (THE REGENTS OF THE UNIVERSITY OF CALIFORNIA, priority 2015, dated 2019)
Like-named read-outs stand apart in the source and are kept apart here.

Tests used:
Type in all cases: cell-based
MCF-7 = test: MTT cell viability assay, MCF-7; settings: Homo sapiens, MTT, 72-hour incubation, read-out: IC50/μM MCF-7
Description: (§1) Cells were then treated with compound at various concentrations in 0.2 mL media. After the 72-hour incubation period, cells were washed in PBS (3×100 μL), and 10 μL MTT reagent was added with 100 μL fresh media. Cells were then incubated for 4 hr in a humidified chamber at 37° C. with 5% CO2. Insoluble formazan crystals were solubilized by addition of 0.1 mL detergent solution (4 hr at room temp., dark). Resulting colored solutions were then quantified at an absorbance of 570 nm.

MDA-MB-231 = test: MTT cell viability assay, MDA-MB-231; settings: Homo sapiens
Description: as §1

MEF (C57BL/6) = test: MTT cell viability assay, MEF (C57BL/6); settings: Mus musculus
Description: as §1

[1] = MTT, 72-hour incubation, read-out: IC50/μM MEF (C57BL/6)
[2] = MDA-MB-231, 72 h, 72-hour incubation

SMILES | IC50 (MCF-7; MCF7) | IC50 (MDA-MB-231; MDA-MB-231, 72-hour incubation) | IC50 (MEF (C57BL/6); [1]) | IC50 (MCF-7; MCF7, 72 h) | IC50 (MDA-MB-231; [2]) | IC50 (MEF (C57BL/6); 72 h, read-out: IC50/μM MEF (C57BL/6), MTT, 72-hour incubation)
C=CCn1c(=O)/c(=C2\Sc3ccccc3N2C)s/c1=C\c1scc[n+]1Cc1ccccc1 [JG-276] | 0.24 ± 0.02 µM | 0.27 ± 0.03 µM | 2.5 ± 0.1 µM | – | – | –
CCn1c(=O)/c(=C2\Sc3cc(F)ccc3N2C)s/c1=C\c1scc[n+]1Cc1ccccc1SC(F)(F)F [JG-254] | 0.65 ± 0.13 µM | 0.1 ± 0.01 µM | 1.5 ± 0.1 µM | – | – | –
CCn1c(=O)/c(=C2\Sc3cc(C)ccc3N2C)s/c1=C\c1scc[n+]1CCc1cccc(Cl)c1 [JG-382] | 0.59 ± 0.03 µM | 0.46 ± 0.06 µM | 1.2 ± 0.1 µM | – | – | –
CCn1c(=O)/c(=C2\Sc3cc(SC)ccc3N2C)s/c1=C\c1scc[n+]1Cc1ccc(C(F)(F)F)o1 [JG-314] | 0.57 ± 0.08 µM | 0.25 ± 0.04 µM | 4.8 ± 0.9 µM | – | – | –
CCn1c(=O)/c(=C2\Sc3ccc(C)cc3N2C)s/c1=C\c1scc[n+]1Cc1ccccc1Cl [JG-365] | 0.11 ± 0.01 µM | 0.16 ± 0.02 µM | 0.42 ± 0.02 µM | – | – | –
CCn1c(=O)/c(=C2\Sc3ccc(C)cc3N2C)s/c1=C\c1scc[n+]1Cc1c(C)cccc1C [JG-362] | 0.19 ± 0.02 µM | 0.23 ± 0.01 µM | 2.3 ± 0.1 µM | – | – | –
CCn1c(=O)/c(=C2\Sc3cc(Cl)ccc3N2C)s/c1=C\c1scc[n+]1CCc1ccccc1C [JG-391] | 0.68 ± 0.04 µM | 0.26 ± 0.01 µM | 2.5 ± 0.2 µM | – | – | –
CCn1c(=O)/c(=C2\Sc3cc(Cl)ccc3N2C)s/c1=C\c1scc[n+]1CCc1ccccc1 [JG-269] | 0.18 ± 0.01 µM | 0.26 ± 0.04 µM | 2.2 ± 0.1 µM | – | – | –
CCn1c(=O)/c(=C2\Sc3cc(C)ccc3N2C)s/c1=C\c1scc[n+]1CCc1ccccc1C(F)(F)F [JG-378] | 0.13 ± 0.01 µM | 0.14 ± 0.02 µM | 0.87 ± 0.03 µM | – | – | –
CCc1ccc2c(c1)S/C(=c1/s/c(=C\c3scc[n+]3Cc3ccccc3OC(F)(F)F)n(CC)c1=O)N2C [JG-297] | 0.08 ± 0.005 µM | 0.097 ± 0.006 µM | 0.41 ± 0.01 µM | – | – | –
CCn1c(=O)/c(=C2\Sc3cc(C(C)C)ccc3N2C)s/c1=C\c1scc[n+]1Cc1ccccc1C [JG-324] | 0.17 ± 0.02 µM | 0.15 ± 0.02 µM | 1.9 ± 0.1 µM | – | – | –
CCn1c(=O)/c(=C2\Sc3cc(OC)ccc3N2C)s/c1=C\c1scc[n+]1Cc1ccccc1C(F)(F)F [JG-304] | 0.12 ± 0.01 µM | 0.1 ± 0.02 µM | 1.4 ± 0.06 µM | – | – | –
CCn1c(=O)/c(=C2\Sc3ccc(C)cc3N2C)s/c1=C\c1scc[n+]1Cc1ccccc1Br [JG-367] | 0.12 ± 0.01 µM | 0.22 ± 0.02 µM | 0.54 ± 0.02 µM | – | – | –
CCn1c(=O)/c(=C2\Sc3cc(Cl)ccc3N2C)s/c1=C\c1scc[n+]1CCc1cccc(Cl)c1 [JG-381] | 0.55 ± 0.03 µM | 0.62 ± 0.05 µM | 2.3 ± 0.2 µM | – | – | –
CCn1c(=O)/c(=C2\Sc3cc(F)ccc3N2C)s/c1=C\c1scc[n+]1Cc1ccccc1C(=O)OC [JG-332] | 0.22 ± 0.03 µM | 0.26 ± 0.03 µM | 2 ± 0.1 µM | – | – | –
CCn1c(=O)/c(=C2\Sc3cc(C)ccc3N2C)s/c1=C\c1scc[n+]1CCc1ccc(C(F)(F)F)cc1 [JG-388] | 0.5 ± 0.04 µM | 0.62 ± 0.07 µM | 1.6 ± 0.1 µM | – | – | –
CCn1c(=O)/c(=C2\Sc3cc(F)ccc3N2C)s/c1=C\c1scc[n+]1Cc1ccccc1Br [JG-308] | 0.16 ± 0.02 µM | 0.19 ± 0.02 µM | 0.6 ± 0.06 µM | – | – | –
CCn1c(=O)/c(=C2\Sc3cc(Br)ccc3N2C)s/c1=C\c1scc[n+]1Cc1ccccc1C [JG-290] | 0.16 ± 0.01 µM | 0.21 ± 0.02 µM | 1.7 ± 0.1 µM | – | – | –
CCn1c(=O)/c(=C2\Sc3cc(SC)ccc3N2C)s/c1=C\c1scc[n+]1Cc1ccsc1C(=O)OC [JG-313] | 0.2 ± 0.01 µM | 0.16 ± 0.02 µM | 1.4 ± 0.1 µM | – | – | –
CCn1c(=O)/c(=C2\Sc3ccc(OC)cc3N2C)s/c1=C\c1scc[n+]1Cc1ccccc1SC(F)(F)F [JG-399] | 0.2 ± 0.01 µM | 0.11 ± 0.01 µM | 3.1 ± 0.2 µM | – | – | –
CCn1c(=O)/c(=C2\Sc3cc(Cl)ccc3N2C)s/c1=C\c1scc[n+]1Cc1c(C)cccc1C [JG-333] | 0.35 ± 0.04 µM | 0.19 ± 0.02 µM | 1.1 ± 0.1 µM | – | – | –

SMILES | IC50 (MCF-7; MCF7) | IC50 (MDA-MB-231; MDA-MB-231, 72-hour incubation) | IC50 (MEF (C57BL/6); [1]) | IC50 (MCF-7; MCF7, 72 h) | IC50 (MDA-MB-231; [2]) | IC50 (MEF (C57BL/6); 72 h, read-out: IC50/μM MEF (C57BL/6), MTT, 72-hour incubation)
CCn1c(=O)/c(=C2\Sc3cc(F)ccc3N2C)s/c1=C\c1scc[n+]1Cc1c(C)noc1C [JG-268] | > 5 µM | > 20 µM | > 10 µM | – | – | –
CCn1c(=O)/c(=C2\Sc3cc(C)ccc3N2C)s/c1=C\c1scc[n+]1CCc1cccc(C(F)(F)F)c1 [JG-384] | 0.62 ± 0.08 µM | 0.68 ± 0.1 µM | 1.1 ± 0.1 µM | – | – | –
CCn1c(=O)/c(=C2\Sc3cc(C(C)C)ccc3N2C)s/c1=C\c1scc[n+]1Cc1ccsc1C(=O)OC [JG-327] | 0.15 ± 0.02 µM | 0.17 ± 0.02 µM | 0.7 ± 0.03 µM | – | – | –
CCn1c(=O)/c(=C2\Sc3cc(Cl)ccc3N2C)s/c1=C\c1scc[n+]1Cc1occc1C(=O)OC [JG-265] | – | – | – | 0.81 ± 0.09 µM | 0.13 ± 0.01 µM | 2.7 ± 0.1 µM
CCn1c(=O)/c(=C2\Sc3cc(F)ccc3N2C)s/c1=C\c1scc[n+]1Cc1ccccc1OC [JG-264] | 0.49 ± 0.04 µM | 0.24 ± 0.03 µM | 1.4 ± 0.1 µM | – | – | –
CCn1c(=O)/c(=C2\Sc3cc(F)c(F)cc3N2C)s/c1=C\c1scc[n+]1Cc1ccccc1 [JG-251] | 2.5 ± 0.5 µM | 1.1 ± 0.1 µM | 0.91 ± 0.06 µM | – | – | –
CCc1ccc2c(c1)S/C(=c1/s/c(=C\c3scc[n+]3Cc3ccsc3C(=O)OC)n(CC)c1=O)N2C [JG-299] | 0.083 ± 0.007 µM | 0.071 ± 0.009 µM | 0.92 ± 0.04 µM | – | – | –
CCn1c(=O)/c(=C2\Sc3cc(OC)ccc3N2C)s/c1=C\c1scc[n+]1Cc1ccccc1C(=O)OC [JG-351] | 0.14 ± 0.01 µM | 0.11 ± 0.01 µM | 1.6 ± 0.1 µM | – | – | –
CCn1c(=O)/c(=C2\Sc3cc(Cl)ccc3N2C)s/c1=C\c1scc[n+]1CCc1ccccc1OC [JG-389] | 0.86 ± 0.08 µM | 0.27 ± 0.01 µM | 2.4 ± 0.1 µM | – | – | –
CCn1c(=O)/c(=C2\Sc3cc(F)ccc3N2C)s/c1=C\c1scc[n+]1Cc1occc1C(=O)OC [JG-266] | 0.87 ± 0.11 µM | 0.3 ± 0.02 µM | 2.7 ± 0.2 µM | – | – | –
CCn1c(=O)/c(=C2\Sc3cc(F)ccc3N2C)s/c1=C\c1scc[n+]1Cc1c(Cl)cccc1Cl [JG-338] | 0.17 ± 0.02 µM | 0.14 ± 0.01 µM | 1 ± 0.03 µM | – | – | –
CCn1c(=O)/c(=C2\Sc3cc(OC)ccc3N2C)s/c1=C\c1scc[n+]1Cc1ccccc1 [JG-250] | – | – | 2 ± 0.1 µM | 0.13 ± 0.01 µM | 0.16 ± 0.01 µM | –
CN1/C(=c2\s/c(=C\c3scc[n+]3Cc3ccccc3)n(C)c2=O)Sc2cc(Cl)ccc21 [JG-281] | 0.6 ± 0.06 µM | 0.16 ± 0.02 µM | 5.7 ± 0.3 µM | – | – | –
CCn1c(=O)/c(=C2\Sc3cc(C(C)C)ccc3N2C)s/c1=C\c1scc[n+]1C(C)c1ccccc1 (stereo not drawn) [JG-319] | 0.13 ± 0.01 µM | 0.26 ± 0.03 µM | 1.7 ± 0.04 µM | – | – | –
CCn1c(=O)/c(=C2\Sc3cc(F)ccc3N2C)s/c1=C\c1scc[n+]1Cc1nc(C)sc1C [JG-275] | 0.27 ± 0.03 µM | 0.3 ± 0.03 µM | 1.6 ± 0.1 µM | – | – | –
CCn1c(=O)/c(=C2\Sc3ccc(C)cc3N2C)s/c1=C\c1scc[n+]1Cc1ccccc1C(=O)OC [JG-364] | 0.15 ± 0.01 µM | 0.11 ± 0.01 µM | 2.3 ± 0.2 µM | – | – | –
CCc1ccc2c(c1)S/C(=c1/s/c(=C\c3scc[n+]3Cc3ccccc3Cl)n(CC)c1=O)N2C [JG-295] | 0.084 ± 0.006 µM | 0.093 ± 0.005 µM | 0.48 ± 0.01 µM | – | – | –
CCn1c(=O)/c(=C2\Sc3cc(Br)ccc3N2C)s/c1=C\c1scc[n+]1Cc1ccccc1OC(F)(F)F [JG-291] | 0.14 ± 0.01 µM | 0.14 ± 0.01 µM | 2.3 ± 0.1 µM | – | – | –
CCn1c(=O)/c(=C2\Sc3cc(OC)ccc3N2C)s/c1=C\c1scc[n+]1CCc1cccc(Cl)c1 [JG-394] | 0.56 ± 0.06 µM | 0.24 ± 0.01 µM | 2.3 ± 0.1 µM | – | – | –
CCn1c(=O)/c(=C2\Sc3cc(Cl)ccc3N2C)s/c1=C\c1scc[n+]1[C@H](C)c1ccccc1 [JG-339] | 0.37 ± 0.04 µM | 0.19 ± 0.02 µM | 1.5 ± 0.08 µM | – | – | –
CCn1c(=O)/c(=C2\Sc3cc(Br)ccc3N2C)s/c1=C\c1scc[n+]1Cc1ccsc1C(=O)OC [JG-293] | 0.3 ± 0.03 µM | 0.14 ± 0.03 µM | 3.1 ± 0.3 µM | – | – | –
